The subject of the assay is S. cerevisiae SKN7-toxicity growth rescue, plate reader. Briefly: SKN7 mediated toxicity in Saccharomyces cerevisiae, growth rescue counterscreen, dose confirmation (AID 624258;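 further: growth read after three days of incubation at 30 °C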). (Counterscreens check selectivity or assay interference.)

The structures appear in SMILES notation. The source made the active and inactive calls. How the calls were made is not given here. Some results are limits rather than exact numbers.

For `CCOC(=O)c1cccc2c1-c1ccccc1/C2=N/O`, the AC40 is 1.91 µM.
Regarding `Cc1cc(C(=O)N/N=C/c2ccc(O)c(O)c2O)c(C)n1-c1ccccc1`, the AC40 was 1.36 µM.
With `COc1cccc(CNC(=O)COc2ccc(C(=O)c3ccccc3)cc2)c1` the figure was 18 µM; with `Cc1cccc(C)c1N=Nc1c(C)cc(O)cc1C`, 1.12 µM.
The same measure for `CC1CCc2sc(-c3n[nH]c(=S)o3)cc2C1` (configuration not stated): 0.663 µM; for `Oc1cc(Nc2ccccc2)cc2cccnc12`: 3.81 µM; for `Cc1onc(-c2ccccc2)c1C(=O)OCc1nnc(-c2ccc([N+](=O)[O-])cc2)o1`: 2.27 µM.
On to `CNC1=C(N(C(C)=O)c2ccc(Br)cc2)C(=O)c2ccccc2C1=O`, for which the AC40 is 15.8 µM.
The same measure for `c1ccc2c(-c3c[nH]c4ccccc34)c3ccccc3nc2c1`: 5.73 µM.
The same measure for `Cc1ccc(SCCNC(=S)Nc2ccc(C)c(C)c2)cc1`: 14.2 µM; for `Cc1ccc(NC2(c3nnnn3-c3c(C)cccc3C)CCCCC2)cc1`: > 19.5 µM (inactive).
With `CC(C)(C)c1cc(-c2nc(N)nc(N)n2)c(O)c(C(C)(C)C)c1` the figure was 1.92 µM; with `Cc1ccc(CN2CC(C(=O)N(Cc3nnc(-c4ccccc4Cl)o3)C3CC3)CC2=O)cc1` (configuration not stated), 8.15 µM.
Take `Cc1cccc2sc(NNC(=O)c3ccc(S(=O)(=O)N4CC(C)CC(C)C4)cc3)nc12` (configuration not stated): the AC40 was 0.736 µM.
Consider `CCCCCCCCCCOC(=O)Cn1c(COc2ccc(OC)cc2)[n+](C)c2ccccc21`, for which the AC40 is 3.33 µM.
With `NNC(=O)c1ccc2nc(-c3ccc(Br)cc3)cn2c1` the figure was 13.1 µM.
The same measure for `Cc1cccc(C)c1NS(=O)(=O)c1ccc(-c2cnc(C3CC3)o2)cc1`: 7.85 µM.
With `O=C(O)c1ccc(N/N=C/C=C/c2ccccc2)cc1` the figure was 1.11 µM; with `N=c1c2c(-c3ccccc3)c(-c3ccccc3)n(Cc3ccco3)c2ncn1CCCn1ccnc1`, 2.92 µM.
Regarding `S=C(NCCCc1ccccc1)Nc1ccc(Br)cc1`, the AC40 is 4.26 µM.
The same measure for `O=C(CCCNC(=O)c1ccc(Cl)cc1)OCc1cccc(Br)c1`: > 19.5 µM (inactive).
The same measure for `CC(NC(=S)NC1CCC(C(C)(C)C)CC1)c1ccccc1` (configuration not stated): 6.16 µM.
The same measure for `CCOC(=O)c1ccc(NC(=O)CC2C(=O)OCCN2CC)cc1` (configuration not stated): 4.89 µM; for `Cc1cc([N+](=O)[O-])cc(/C=N/n2c(C)nc3ccccc3c2=O)c1O`: 4.24 µM; for `O=C1c2ccccc2NC(c2ccc(Cl)cc2Cl)N1O` (configuration not stated): 7.55 µM.
Regarding `N#C/C(=C\Nc1ccccc1O)c1nc2ccccc2o1`, the AC40 is 1.12 µM.
`C=CS(=O)(=O)c1ccc(Oc2ccc(S(=O)(=O)C=C)cc2)cc1`: the AC40 is 7.95 µM.
`COc1ccc2c(c1)c1nnc(SC)nc1n2C`: the AC40 was 2 µM.
Regarding `COc1cc2c(cc1/C=C/[N+](=O)[O-])OCO2`, the AC40 was 6.54 µM.
With `O=C(NNC(=O)c1cc(Cl)ccc1O)c1ccc(NS(=O)(=O)c2cccs2)cc1` the figure was 5.75 µM; with `Cc1noc2ncnc(SCc3ccc(C(F)(F)F)cc3)c12`, 0.965 µM; with `Cc1ccc(NC2=C(NC(=O)c3ccccc3)C(=O)c3ccccc3C2=O)cc1Cl`, 4.15 µM.
The same measure for `O=c1c2cc(Cl)ccc2oc2nc3n(c(=O)c12)CCCS3`: 19.1 µM; for `CCn1c(=O)oc2cc(NC(=O)CCl)ccc21`: 18.2 µM.
With `CSc1nccc(NC(=O)c2ccc(C(C)(C)C)cc2)n1`, the AC40 was 7.82 µM.
Turning to `Cc1nn(-c2nnc(NC3CCCCC3)nn2)c(C)c1Br`, the AC40 is 6.48 µM.
With `CC(=O)c1ccc(Sc2ccccc2)c([N+](=O)[O-])c1` the figure was > 19.5 µM (inactive); with `O/C(=C\c1nc2ccccc2nc1/C=C(\O)c1ccccc1)c1ccccc1`, 4.59 µM.
The same measure for `O=C(Oc1cccc(C(=S)N2CCOCC2)c1)c1ccc([N+](=O)[O-])cc1[N+](=O)[O-]`: 16.4 µM; for `S=C(NCCCc1ccccc1)Nc1ccccc1Cl`: 5.29 µM.
The same measure for `COC(=O)c1cc(Sc2cccc(Cl)c2Cl)ccn1`: 14.7 µM; for `C/C(CC(=O)Nc1ccccn1)=N\NC(=O)c1ccccc1O`: 5.11 µM.
As to `CC1Cc2ccccc2N1c1ncnc(N)c1[N+](=O)[O-]` (configuration not stated), the AC40 is 7.27 µM.
With `O=[N+]([O-])c1cc2oc3c(c2c(C=NCc2ccccc2)c1O)CCCC3` the figure was 1.38 µM; with `CN1CCN(C2CCN(c3ccc(Nc4nnc(Cl)c(Nc5ccccc5S(C)(=O)=O)n4)c(OC(CF)CF)c3)CC2)CC1`, 15.1 µM.
The same measure for `CN(C)S(=O)(=O)c1cccc(NC(=S)NNC(=O)c2cc3ccccc3cc2O)c1`: 1.27 µM; for `CCCC(=O)NC(c1ccccc1OC)c1ccc2cccnc2c1O` (configuration not stated): 1.2 µM.
With `CN(C)c1ccc(-n2cccc2/C=C/[N+](=O)[O-])cc1` the figure was 1.16 µM; with `Cc1cc(F)ccc1S(=O)(=O)N(C(=O)c1ccncc1)c1ccc(OC(=O)c2ccncc2)cc1`, 2.42 µM; with `C/C(=N\NC(=S)NC1CCCCC1)c1c(F)cccc1F`, 3.39 µM.
With `O=c1c(Cl)c(Cl)cnn1Cc1nnc(-c2ccc(Cl)cc2)o1`, the AC40 is 7.97 µM.
The same measure for `COc1ccc2c(n1)Sc1nc3ccccc3nc1N2`: 0.649 µM; for `Cc1nc2c(nc1C)C(=O)c1ccccc1C2=O`: 13 µM.
In the case of `Cc1ccc(-c2nn(C(C)(C)C)c3ncnc(N)c23)cc1`, the AC40 is 9.29 µM.
With `O=C(N/N=C/c1c(O)n(Cc2ccccc2)c(=O)c2ccccc12)c1cccnc1` the figure was 1.01 µM.
The same measure for `O=C(Oc1cccc(NC(=O)c2ccccc2Cl)c1)c1ccc([N+](=O)[O-])cc1`: 14.1 µM; for `O=C(NCCN1CCN(c2cccc(Cl)c2)CC1)c1ccc(CSc2nc3ccncc3[nH]2)cc1`: 8.35 µM.
The same measure for `O=[N+]([O-])c1cc(Cl)ccc1Sc1ccccn1`: 17.3 µM; for `O=C1c2ccccc2NC(c2ccc(-c3ccc(C(F)(F)F)cc3)o2)N1O` (configuration not stated): 1.71 µM.
For `Cc1cc(Cl)ccc1OCC(=O)NCCCCc1ccccc1`, the AC40 was 8.43 µM.
As for `O=C(O)c1cccc(NN=C2c3ccccc3-c3ccccc32)c1`, the AC40 was 3.11 µM.
Regarding `O=C(Nc1ccccc1N1CCOCC1)c1cc2c(s1)CCCCC2`, the AC40 is 7.06 µM.
With `COc1cccc(CNC(=O)CSc2ccc(-c3ccccn3)nn2)c1` the figure was 16.4 µM.
With `COc1cc(C(=O)ON=C2C3CC4CC(C3)CC2C4)cc(OC)c1OC` the figure was 1.79 µM; with `Cc1nc(Sc2ccc(Cl)cc2)c(C#N)c(C)c1[N+](=O)[O-]`, 0.937 µM.
Regarding `Clc1cccc(CON/C=N/c2ncnc3sccc23)c1`, the AC40 is 3.8 µM.
For the molecule `CC(=O)NC(c1ccc(Cl)cc1Cl)c1ccc2cccnc2c1O` (configuration not stated), the AC40 was 1.38 µM.
With `COc1cc(OC)cc(N2C(=O)CC(N3CCC(C(=O)N4CCCCC4)CC3)C2=O)c1` (configuration not stated) the figure was 13.7 µM; with `O=C(N/N=C/c1sc(N2CCOCC2)nc1-c1ccccc1)c1ccccc1O`, 3.04 µM.
Turning to `Cc1ccc(C(C[N+](=O)[O-])c2c(N)n(C)c(=O)n(C)c2=O)cc1` (configuration not stated), the AC40 was 4.96 µM.
Consider `CC1=CC(=O)C(C(C)C)=C/C1=N/OS(=O)(=O)c1ccccc1`, for which the AC40 was 0.11 µM.
Consider `CSC(=S)N/N=C/c1ccccc1`, for which the AC40 is 3.19 µM.
With `COc1ccc(-n2nc(C#N)c(Cl)cc2=O)cc1` the figure was 5.22 µM.
For `CC1=CC(=O)C(C(C)C)=C/C1=N/OC(=O)c1cccc([N+](=O)[O-])c1`, the AC40 was 1.05 µM.
The same measure for `Cc1cc(C(=O)N/N=C/c2cc(Br)cc([N+](=O)[O-])c2O)c2ccccc2n1`: 1.27 µM.
Take `Clc1cccc(-c2noc3ncnc(Nc4ccc5c(c4)OCO5)c23)c1`: the AC40 was 7.06 µM.
The same measure for `CCCCCCCN1N=C(C)C(C(=O)c2ccccc2)C1=O` (configuration not stated): 0.764 µM; for `Cc1ccc(CNC(=O)C2COc3ccccc3O2)cc1` (configuration not stated): 17.7 µM; for `O=C(Cc1ccccc1F)Nc1nc(-c2ccc(F)c(F)c2)cs1`: 2.54 µM.
The same measure for `Cc1ccnc(NC(c2ccsc2)c2ccc3ccc(C)nc3c2O)c1` (configuration not stated): 6.7 µM.
The same measure for `CNc1ccc(C=C2C=Cc3ccccc32)cc1`: 0.998 µM; for `O=Cc1cc(N=Nc2ccccc2Cl)ccc1O`: 0.446 µM; for `O=C(Oc1cc2oc(=O)cc(-c3ccccc3)c2cc1Cl)C1CCCCC1`: 8.04 µM.
Consider `COc1ccc(C(c2c(O)ccc3ccccc23)N2CCOCC2)c(OC)c1` (configuration not stated), for which the AC40 was 2.35 µM.
With `O=c1[nH]c(=O)n(C2OC(CO)C(O)C2O)cc1F` (configuration not stated) the figure was 12.9 µM; with `CCCCNC1=CC(=O)C(=O)c2ccccc21`, 17.5 µM; with `Cc1ccc(C(=O)Sc2cccccc2=O)cc1`, 0.322 µM.
With `COc1cc2c(cc1OC)C(C)N(C(=O)c1cc3c(=O)oc4ccc(C)cc4c3s1)CC2` (configuration not stated) the figure was > 19.5 µM (inactive).
For `Oc1ccccc1-c1nnc(SCCN2CCOCC2)n1Cc1ccccc1`, the AC40 is 9.94 µM.
The same measure for `CC1=C(C)/C(=N\OS(=O)(=O)c2ccc(C)cc2)C=CC1=O`: 1.11 µM; for `COc1ccc(-c2cc(C(=O)NNC(=S)NC(=O)c3c(-c4ccccc4)noc3C)[nH]n2)cc1`: 2.31 µM; for `O=C(CCc1ccccc1)NNC(=S)NC(=O)c1ccccc1`: 0.923 µM.
With `O=c1c(-c2cccc3ccccc23)[n+]([O-])c2ccccc2n1O` the figure was 12.6 µM; with `O=C1C(Br)=Cc2cccc3cccc1c23`, 5.81 µM.
With `C(=N\NC1=Nc2cccc3cccc1c23)/c1ccccn1` the figure was 5.47 µM.
Consider `N#C/C(=C\c1cccc(Oc2ccccc2)c1)C(=O)N1CCOCC1`, for which the AC40 is 8.47 µM.
For `CC(C)(c1cc(Br)c(O)c(Br)c1)c1cc(Br)c(O)c(Br)c1`, the AC40 is 1.26 µM.
With `O=C(Nc1cccnc1)c1ccc2ccccc2c1O` the figure was 0.908 µM.
With `COc1ccc(N2C(=O)C(Cl)=C(Nc3ccccc3O)C2=O)cc1` the figure was 4.9 µM; with `Cc1[nH]n(-c2cccc3ccccc23)c(=O)c1/C=N/NC(=O)c1cccc([N+](=O)[O-])c1`, 0.738 µM.
With `Cc1cccc(N2CCN(C(=O)c3c(-c4ccccc4)noc3C)CC2)c1C` the figure was 0.414 µM; with `O=C(c1ccco1)N1CCN(C(=O)c2ccccc2OCc2ccc(Cl)cc2)CC1`, 19.1 µM.

Values taken from PubChem BioAssay AID624258 (Broad Institute, 2012).
